For data set [1], the target named is AcrB (Escherichia coli, UniProt P31224). The data set is described as follows: ITC. It counts as binding.
The target in data set [2] is AcrB (Escherichia coli, UniProt P31224, I27A). The data set is described as follows: ITC. It is filed as binding.
Data set [3] deals with AcrB (Escherichia coli, UniProt P31224, V340A). The data set is described as follows: ITC. It counts as binding.
The target in data set [4] is AcrB (Escherichia coli, UniProt P31224, N298A). The data set is described as follows: ITC. It is filed as binding.
The data set “crystal structure” concerns the molecule itself. The data set is described as follows: crystal structure.

Sequence of AcrB (Escherichia coli, UniProt P31224) (P31224 whole entry): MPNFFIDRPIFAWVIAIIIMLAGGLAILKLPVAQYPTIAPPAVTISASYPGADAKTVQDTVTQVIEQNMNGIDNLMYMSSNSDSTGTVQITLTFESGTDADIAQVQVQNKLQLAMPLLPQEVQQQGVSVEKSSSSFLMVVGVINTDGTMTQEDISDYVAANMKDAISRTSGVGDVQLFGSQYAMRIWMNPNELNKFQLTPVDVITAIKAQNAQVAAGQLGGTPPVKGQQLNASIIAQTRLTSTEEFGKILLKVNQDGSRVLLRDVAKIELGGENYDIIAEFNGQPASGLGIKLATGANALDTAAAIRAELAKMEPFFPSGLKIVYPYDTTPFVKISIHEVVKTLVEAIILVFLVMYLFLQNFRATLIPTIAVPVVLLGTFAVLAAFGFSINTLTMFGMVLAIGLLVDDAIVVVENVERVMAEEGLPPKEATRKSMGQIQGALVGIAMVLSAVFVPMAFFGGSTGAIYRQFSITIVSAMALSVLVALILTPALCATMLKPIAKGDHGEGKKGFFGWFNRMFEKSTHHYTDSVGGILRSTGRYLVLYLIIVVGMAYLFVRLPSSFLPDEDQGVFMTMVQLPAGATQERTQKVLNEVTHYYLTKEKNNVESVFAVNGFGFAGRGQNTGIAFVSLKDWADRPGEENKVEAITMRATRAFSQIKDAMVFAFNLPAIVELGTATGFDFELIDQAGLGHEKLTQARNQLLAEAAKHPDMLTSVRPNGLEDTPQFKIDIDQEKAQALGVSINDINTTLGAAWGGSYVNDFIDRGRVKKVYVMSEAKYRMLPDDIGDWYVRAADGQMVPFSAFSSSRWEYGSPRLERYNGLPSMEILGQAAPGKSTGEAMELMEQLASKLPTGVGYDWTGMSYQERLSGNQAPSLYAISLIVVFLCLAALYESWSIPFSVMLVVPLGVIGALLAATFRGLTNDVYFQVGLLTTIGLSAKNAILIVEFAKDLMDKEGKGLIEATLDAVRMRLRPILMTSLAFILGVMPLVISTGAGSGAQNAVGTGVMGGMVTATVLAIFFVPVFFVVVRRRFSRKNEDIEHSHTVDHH

Consider `CC(=O)O[C@H]1C[C@@]2(C)[C@@H](C[C@@H](O)[C@H]3[C@@]4(C)CC[C@@H](O)[C@@H](C)[C@@H]4CC[C@@]32C)/C1=C(\CCC=C(C)C)C(=O)O` [FUA, fusidic acid], for which the equilibrium dissociation constant (Kd) – broadly, the equilibrium constant for the complex coming apart – on AcrB [1] was found to be 528 ± 8.6 µM; at AcrB [2] it was 405 ± 6.6 µM; at AcrB [3] it was 826.5 ± 4.8 µM; on AcrB [4], 1120 ± 18.2 µM.

B1: AcrB-N298A (natural protein)
chain: MPNFFIDRPIFAWVIAIIIMLAGGLAILKLPVAQYPTIAPPAVTISASYPGADAKTVQDTVTQVIEQNMNGIDNLMYMSSNSDSTGTVQITLTFESGTDADIAQVQVQNKLQLAMPLLPQEVQQQGVSVEKSSSSFLMVVGVINTDGTMTQEDISDYVAANMKDAISRTSGVGDVQLFGSQYAMRIWMNPNELNKFQLTPVDVITAIKAQNAQVAAGQLGGTPPVKGQQLNASIIAQTRLTSTEEFGKILLKVNQDGSRVLLRDVAKIELGGENYDIIAEFNGQPASGLGIKLATGAAALDTAAAIRAELAKMEPFFPSGLKIVYPYDTTPFVKISIHEVVKTLVEAIILVFLVMYLFLQNFRATLIPTIAVPVVLLGTFAVLAAFGFSINTLTMFGMVLAIGLLVDDAIVVVENVERVMAEEGLPPKEATRKSMGQIQGALVGIAMVLSAVFVPMAFFGGSTGAIYRQFSITIVSAMALSVLVALILTPALCATMLKPIAKGDHGEGKKGFFGWFNRMFEKSTHHYTDSVGGILRSTGRYLVLYLIIVVGMAYLFVRLPSSFLPDEDQGVFMTMVQLPAGATQERTQKVLNEVTHYYLTKEKNNVESVFAVNGFGFAGRGQNTGIAFVSLKDWADRPGEENKVEAITMRATRAFSQIKDAMVFAFNLPAIVELGTATGFDFELIDQAGLGHEKLTQARNQLLAEAAKHPDMLTSVRPNGLEDTPQFKIDIDQEKAQALGVSINDINTTLGAAWGGSYVNDFIDRGRVKKVYVMSEAKYRMLPDDIGDWYVRAADGQMVPFSAFSSSRWEYGSPRLERYNGLPSMEILGQAAPGKSTGEAMELMEQLASKLPTGVGYDWTGMSYQERLSGNQAPSLYAISLIVVFLCLAALYESWSIPFSVMLVVPLGVIGALLAATFRGLTNDVYFQVGLLTTIGLSAKNAILIVEFAKDLMDKEGKGLIEATLDAVRMRLRPILMTSLAFILGVMPLVISTGAGSGAQNAVGTGVMGGMVTATVLAIFFVPVFFVVVRRRFSRKNEDIEHSHTVDHH
On to B1, for which the binding result in “crystal structure” is “binds”.

B2: AcrB-I27A (natural protein)
chain: MPNFFIDRPIFAWVIAIIIMLAGGLAALKLPVAQYPTIAPPAVTISASYPGADAKTVQDTVTQVIEQNMNGIDNLMYMSSNSDSTGTVQITLTFESGTDADIAQVQVQNKLQLAMPLLPQEVQQQGVSVEKSSSSFLMVVGVINTDGTMTQEDISDYVAANMKDAISRTSGVGDVQLFGSQYAMRIWMNPNELNKFQLTPVDVITAIKAQNAQVAAGQLGGTPPVKGQQLNASIIAQTRLTSTEEFGKILLKVNQDGSRVLLRDVAKIELGGENYDIIAEFNGQPASGLGIKLATGANALDTAAAIRAELAKMEPFFPSGLKIVYPYDTTPFVKISIHEVVKTLVEAIILVFLVMYLFLQNFRATLIPTIAVPVVLLGTFAVLAAFGFSINTLTMFGMVLAIGLLVDDAIVVVENVERVMAEEGLPPKEATRKSMGQIQGALVGIAMVLSAVFVPMAFFGGSTGAIYRQFSITIVSAMALSVLVALILTPALCATMLKPIAKGDHGEGKKGFFGWFNRMFEKSTHHYTDSVGGILRSTGRYLVLYLIIVVGMAYLFVRLPSSFLPDEDQGVFMTMVQLPAGATQERTQKVLNEVTHYYLTKEKNNVESVFAVNGFGFAGRGQNTGIAFVSLKDWADRPGEENKVEAITMRATRAFSQIKDAMVFAFNLPAIVELGTATGFDFELIDQAGLGHEKLTQARNQLLAEAAKHPDMLTSVRPNGLEDTPQFKIDIDQEKAQALGVSINDINTTLGAAWGGSYVNDFIDRGRVKKVYVMSEAKYRMLPDDIGDWYVRAADGQMVPFSAFSSSRWEYGSPRLERYNGLPSMEILGQAAPGKSTGEAMELMEQLASKLPTGVGYDWTGMSYQERLSGNQAPSLYAISLIVVFLCLAALYESWSIPFSVMLVVPLGVIGALLAATFRGLTNDVYFQVGLLTTIGLSAKNAILIVEFAKDLMDKEGKGLIEATLDAVRMRLRPILMTSLAFILGVMPLVISTGAGSGAQNAVGTGVMGGMVTATVLAIFFVPVFFVVVRRRFSRKNEDIEHSHTVDHH
With B2, the binding result in the data set “crystal structure” was “binds”.

B3: AcrB-V340A (natural protein)
chain: MPNFFIDRPIFAWVIAIIIMLAGGLAILKLPVAQYPTIAPPAVTISASYPGADAKTVQDTVTQVIEQNMNGIDNLMYMSSNSDSTGTVQITLTFESGTDADIAQVQVQNKLQLAMPLLPQEVQQQGVSVEKSSSSFLMVVGVINTDGTMTQEDISDYVAANMKDAISRTSGVGDVQLFGSQYAMRIWMNPNELNKFQLTPVDVITAIKAQNAQVAAGQLGGTPPVKGQQLNASIIAQTRLTSTEEFGKILLKVNQDGSRVLLRDVAKIELGGENYDIIAEFNGQPASGLGIKLATGANALDTAAAIRAELAKMEPFFPSGLKIVYPYDTTPFVKISIHEAVKTLVEAIILVFLVMYLFLQNFRATLIPTIAVPVVLLGTFAVLAAFGFSINTLTMFGMVLAIGLLVDDAIVVVENVERVMAEEGLPPKEATRKSMGQIQGALVGIAMVLSAVFVPMAFFGGSTGAIYRQFSITIVSAMALSVLVALILTPALCATMLKPIAKGDHGEGKKGFFGWFNRMFEKSTHHYTDSVGGILRSTGRYLVLYLIIVVGMAYLFVRLPSSFLPDEDQGVFMTMVQLPAGATQERTQKVLNEVTHYYLTKEKNNVESVFAVNGFGFAGRGQNTGIAFVSLKDWADRPGEENKVEAITMRATRAFSQIKDAMVFAFNLPAIVELGTATGFDFELIDQAGLGHEKLTQARNQLLAEAAKHPDMLTSVRPNGLEDTPQFKIDIDQEKAQALGVSINDINTTLGAAWGGSYVNDFIDRGRVKKVYVMSEAKYRMLPDDIGDWYVRAADGQMVPFSAFSSSRWEYGSPRLERYNGLPSMEILGQAAPGKSTGEAMELMEQLASKLPTGVGYDWTGMSYQERLSGNQAPSLYAISLIVVFLCLAALYESWSIPFSVMLVVPLGVIGALLAATFRGLTNDVYFQVGLLTTIGLSAKNAILIVEFAKDLMDKEGKGLIEATLDAVRMRLRPILMTSLAFILGVMPLVISTGAGSGAQNAVGTGVMGGMVTATVLAIFFVPVFFVVVRRRFSRKNEDIEHSHTVDHH
Turning to B3, in “crystal structure”, the binding result is “binds”.

Source of the values: article PMC7071731 (Journal of molecular biology, 2019).
